From PubChem BioAssay AID1053149 (Broad Institute, 2014)

Tests used:
[1] = PCSK9 secretion decrease in hepatoma cells – cell-based, HepG2, ELISA, plate reader, cherry-pick, orthogonal assay for Trib1 inducer project, dose response (AID 1053149); conditions: HepG2 secreted PCSK9, ELISA, 24 h; measured here: maximal PCSK9 decrease; stronger effect = higher value
[2] = tested on: HepG2 secreted PCSK9, ELISA, 24 h; assay: as above

Structure (SMILES): CN1C(=O)c2cc(NC(=O)c3ccc(C(F)(F)F)cc3)ccc2OC[C@@H]2O[C@H](CC(=O)NC3Cc4ccccc4C3)CC[C@@H]21
- decrease in PCSK9 [1]: 79%
- AC50 [2]: 0.6 µM

Structure (SMILES): CN1C(=O)c2cc(NC(=O)c3ccc(C(F)(F)F)cc3)ccc2OC[C@@H]2O[C@@H](CC(=O)NC3Cc4ccccc4C3)CC[C@@H]21
- decrease in PCSK9 [1]: 80%
- AC50 [2]: 6.6 µM
